According to ChEMBL document CHEMBL1150317, “Discovery of aryl aminoquinazoline pyridones as potent, selective, and orally efficacious inhibitors of receptor tyrosine kinase c-Kit” (J Med Chem, 2008):

Key:
[1] = Inhibition of p38 by TR-FRET assay
[2] = Clearance in Sprague-Dawley rat at 1 mg/kg, iv; format: ADME, organism-based; set-up: dose 1 mg/kg, route intravenous; conditions: in vivo
[3] = Volume of distribution at steady state in Sprague-Dawley rat at 1 mg/kg, iv; format: ADME, organism-based; set-up: dose 1 mg/kg, route intravenous; conditions: in vivo, read-out: Vdss
[4] = AUC (0 to t) in Sprague-Dawley rat at 2 mg/kg, po; format: ADME, organism-based; set-up: dose 2 mg/kg, route oral; conditions: plasma
[5] = Cmax in Sprague-Dawley rat at 2 mg/kg, po; format: ADME, organism-based; set-up: dose 2 mg/kg, route oral; conditions: in vivo
[6] = Half life in Sprague-Dawley rat at 2 mg/kg, po; format: ADME, organism-based; set-up: dose 2 mg/kg, route oral; conditions: in vivo
[7] = Oral bioavailability in Sprague-Dawley rat at 2 mg/kg; format: ADME, organism-based; conditions: in vivo
[8] = biological target: Mast/stem cell growth factor receptor Kit (Homo sapiens, UniProt P10721)
Description: Inhibition of SCF-induced phosphorylation of c-Kit in MO7e cells by TR-FRET assay

[9] = biological target: Vascular endothelial growth factor receptor 2 (Homo sapiens, UniProt P35968)
Description: Inhibition of KDR by TR-FRET assay

[10] = biological target: Tyrosine-protein kinase Lck (Homo sapiens, UniProt P06239)
Description: Inhibition of Lck by TR-FRET assay

[11] = biological target: Proto-oncogene tyrosine-protein kinase Src (Homo sapiens, UniProt P12931)
Description: Inhibition of Src by TR-FRET assay

[12] = biological target: Mitogen-activated protein kinase 9 (Homo sapiens) (UniProt P45984); assay: Inhibition of JNK2 at 1 uM relative to control
[13] = AUC (0 to t) in Sprague-Dawley rat at 10 mg/kg, po; format: ADME, organism-based; set-up: dose 10 mg/kg, route oral; conditions: plasma
[14] = Cmax in Sprague-Dawley rat at 10 mg/kg, po; format: ADME, organism-based; set-up: dose 10 mg/kg, route oral; conditions: in vivo
[15] = Half life in Sprague-Dawley rat at 10 mg/kg, po; format: ADME, organism-based; set-up: dose 10 mg/kg, route oral; conditions: in vivo
[16] = Oral bioavailability in Sprague-Dawley rat at 10 mg/kg; format: ADME, organism-based; conditions: in vivo
Mus musculus = assay: Effect on SCF-induced mast cell activation in po dosed C57BL/6 mouse assessed as decrease in histamine release in blood; format: functional, organism-based; conditions: C57BL/6, Blood
Plasma = assay: Protein binding in po dosed C57BL/6 mouse plasma by ultracentrifugation; format: ADME, organism-based; conditions: in vivo
[17] = biological target: Tyrosine-protein kinase ABL1 (Homo sapiens, UniProt P00519); assay: Inhibition of Abl by TR-FRET assay
[18] = biological target: Dual specificity mitogen-activated protein kinase kinase 1 (Homo sapiens) (UniProt Q02750); assay: Inhibition of MEK1 at 1 uM relative to control
[19] = biological target: Mitogen-activated protein kinase 8 (Homo sapiens) (UniProt P45983); assay: Inhibition of JNK1 at 1 uM relative to control
[20] = biological target: Dual specificity mitogen-activated protein kinase kinase 7 (Homo sapiens) (UniProt O14733); assay: Inhibition of MKK7 at 1 uM relative to control
[21] = biological target: Dual specificity mitogen-activated protein kinase kinase 4 (Homo sapiens) (UniProt P45985); assay: Inhibition of MKK4 at 1 uM relative to control
[22] = biological target: Ribosomal protein S6 kinase alpha-5 (Homo sapiens) (UniProt O75582); assay: Inhibition of MSK1 at 1 uM relative to control
[23] = biological target: MAP kinase-activated protein kinase 2 (Homo sapiens) (UniProt P49137); assay: Inhibition of MAPKAPK2 at 1 uM relative to control
[24] = biological target: Mitogen-activated protein kinase 13 (Homo sapiens) (UniProt O15264); assay: Inhibition of p38delta at 1 uM relative to control
[25] = biological target: Mitogen-activated protein kinase 12 (Homo sapiens) (UniProt P53778); assay: Inhibition of p38-gamma at 1 uM relative to control
[26] = biological target: Mitogen-activated protein kinase 11 (Homo sapiens) (UniProt Q15759); assay: Inhibition of p38beta at 1 uM relative to control
[27] = biological target: Dual specificity mitogen-activated protein kinase kinase 6 (Homo sapiens) (UniProt P52564); assay: Inhibition of MKK6 at 1 uM relative to control
[28] = biological target: Mitogen-activated protein kinase 14 (Homo sapiens) (UniProt Q16539); assay: Inhibition of p38alpha at 1 uM relative to control
[29] = biological target: Mitogen-activated protein kinase 1 (Homo sapiens) (UniProt P28482); assay: Inhibition of MAPK2 at 1 uM relative to control
[30] = biological target: Serine/threonine-protein kinase Sgk1 (Homo sapiens) (UniProt O00141); assay: Inhibition of SGK1 at 1 uM relative to control
[31] = biological target: Glycogen synthase kinase-3 beta (Homo sapiens) (UniProt P49841); assay: Inhibition of GSK3-beta at 1 uM relative to control
[32] = Inhibition of PKAalpha at 1 uM relative to control
[33] = biological target: Rho-associated protein kinase 2 (Homo sapiens) (UniProt O75116); assay: Inhibition of ROCK2 at 1 uM relative to control
[34] = Inhibition of casein kinase 2 at 1 uM relative to control
[35] = biological target: Ribosomal protein S6 kinase beta-1 (Homo sapiens) (UniProt P23443); assay: Inhibition of P70S6 at 1 uM relative to control
[36] = biological target: Serine/threonine-protein kinase Chk1 (Homo sapiens) (UniProt O14757); assay: Inhibition of CHK1 at 1 uM relative to control
[37] = biological target: RAC-alpha serine/threonine-protein kinase (Homo sapiens) (UniProt P31749); assay: Inhibition of PKBalpha at 1 uM relative to control
[38] = biological target: Cyclin-dependent kinase 2 (Homo sapiens) (UniProt P24941); assay: Inhibition of CDK2 at 1 uM relative to control
[39] = Inhibition of CAMK2 at 1 uM relative to control
[40] = biological target: Serine/threonine-protein kinase N2 (Homo sapiens) (UniProt Q16513); assay: Inhibition of PRK2 at 1 uM relative to control
[41] = biological target: Serine/threonine-protein kinase Chk2 (Homo sapiens) (UniProt O96017); assay: Inhibition of CHK2 at 1 uM relative to control
[42] = biological target: Mitogen-activated protein kinase 10 (Homo sapiens) (UniProt P53779); assay: Inhibition of JNK3 at 1 uM relative to control
[43] = biological target: Cyclin-dependent kinase 1 (Homo sapiens) (UniProt P06493); assay: Inhibition of CDK1 at 1 uM relative to control
[44] = biological target: Mitogen-activated protein kinase 1 (Homo sapiens) (UniProt P28482); assay: Inhibition of MAPK1 at 1 uM relative to control
[45] = biological target: Protein kinase C beta type (Homo sapiens) (UniProt P05771); assay: Inhibition of PKCbeta at 1 uM relative to control
[46] = biological target: Protein kinase C gamma type (Homo sapiens) (UniProt P05129); assay: Inhibition of PKCgamma at 1 uM relative to control
[47] = biological target: Tyrosine-protein kinase ZAP-70 (Homo sapiens) (UniProt P43403); assay: Inhibition of ZAP70 at 1 uM relative to control
[48] = Inhibition of casein kinase 1 at 1 uM relative to control
[49] = biological target: 5'-AMP-activated protein kinase subunit beta-1 (Homo sapiens) (UniProt Q9Y478); assay: Inhibition of AMPK at 1 uM relative to control
[50] = biological target: MAP kinase-activated protein kinase 5 (Homo sapiens) (UniProt Q8IW41); assay: Inhibition of PRAK at 1 uM relative to control
[51] = biological target: Calcium/calmodulin-dependent protein kinase type IV (Homo sapiens) (UniProt Q16566); assay: Inhibition of CAMK4 at 1 uM relative to control
[52] = biological target: Protein kinase C alpha type (Homo sapiens) (UniProt P17252); assay: Inhibition of PKCalpha at 1 uM relative to control
[53] = biological target: Platelet-derived growth factor receptor alpha (Homo sapiens, UniProt P16234)
Description: Inhibition of PDGFRalpha by TR-FRET assay

Sequence of Tyrosine-protein kinase Lck (P06239 whole entry): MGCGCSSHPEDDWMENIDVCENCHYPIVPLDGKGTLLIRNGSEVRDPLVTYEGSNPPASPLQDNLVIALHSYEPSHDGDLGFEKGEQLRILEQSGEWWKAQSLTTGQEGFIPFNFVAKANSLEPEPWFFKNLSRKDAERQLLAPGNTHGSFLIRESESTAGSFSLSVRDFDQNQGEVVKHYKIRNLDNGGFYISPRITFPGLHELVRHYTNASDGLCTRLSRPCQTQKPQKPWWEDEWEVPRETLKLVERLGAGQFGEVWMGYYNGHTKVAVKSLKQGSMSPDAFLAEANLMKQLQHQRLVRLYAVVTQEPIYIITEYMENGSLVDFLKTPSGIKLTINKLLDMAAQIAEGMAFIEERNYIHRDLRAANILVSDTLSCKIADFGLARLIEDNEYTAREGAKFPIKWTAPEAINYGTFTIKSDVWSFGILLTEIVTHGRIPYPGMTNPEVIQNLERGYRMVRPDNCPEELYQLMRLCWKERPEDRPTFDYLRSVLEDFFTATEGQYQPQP
Sequence of Vascular endothelial growth factor receptor 2 (P35968 whole entry): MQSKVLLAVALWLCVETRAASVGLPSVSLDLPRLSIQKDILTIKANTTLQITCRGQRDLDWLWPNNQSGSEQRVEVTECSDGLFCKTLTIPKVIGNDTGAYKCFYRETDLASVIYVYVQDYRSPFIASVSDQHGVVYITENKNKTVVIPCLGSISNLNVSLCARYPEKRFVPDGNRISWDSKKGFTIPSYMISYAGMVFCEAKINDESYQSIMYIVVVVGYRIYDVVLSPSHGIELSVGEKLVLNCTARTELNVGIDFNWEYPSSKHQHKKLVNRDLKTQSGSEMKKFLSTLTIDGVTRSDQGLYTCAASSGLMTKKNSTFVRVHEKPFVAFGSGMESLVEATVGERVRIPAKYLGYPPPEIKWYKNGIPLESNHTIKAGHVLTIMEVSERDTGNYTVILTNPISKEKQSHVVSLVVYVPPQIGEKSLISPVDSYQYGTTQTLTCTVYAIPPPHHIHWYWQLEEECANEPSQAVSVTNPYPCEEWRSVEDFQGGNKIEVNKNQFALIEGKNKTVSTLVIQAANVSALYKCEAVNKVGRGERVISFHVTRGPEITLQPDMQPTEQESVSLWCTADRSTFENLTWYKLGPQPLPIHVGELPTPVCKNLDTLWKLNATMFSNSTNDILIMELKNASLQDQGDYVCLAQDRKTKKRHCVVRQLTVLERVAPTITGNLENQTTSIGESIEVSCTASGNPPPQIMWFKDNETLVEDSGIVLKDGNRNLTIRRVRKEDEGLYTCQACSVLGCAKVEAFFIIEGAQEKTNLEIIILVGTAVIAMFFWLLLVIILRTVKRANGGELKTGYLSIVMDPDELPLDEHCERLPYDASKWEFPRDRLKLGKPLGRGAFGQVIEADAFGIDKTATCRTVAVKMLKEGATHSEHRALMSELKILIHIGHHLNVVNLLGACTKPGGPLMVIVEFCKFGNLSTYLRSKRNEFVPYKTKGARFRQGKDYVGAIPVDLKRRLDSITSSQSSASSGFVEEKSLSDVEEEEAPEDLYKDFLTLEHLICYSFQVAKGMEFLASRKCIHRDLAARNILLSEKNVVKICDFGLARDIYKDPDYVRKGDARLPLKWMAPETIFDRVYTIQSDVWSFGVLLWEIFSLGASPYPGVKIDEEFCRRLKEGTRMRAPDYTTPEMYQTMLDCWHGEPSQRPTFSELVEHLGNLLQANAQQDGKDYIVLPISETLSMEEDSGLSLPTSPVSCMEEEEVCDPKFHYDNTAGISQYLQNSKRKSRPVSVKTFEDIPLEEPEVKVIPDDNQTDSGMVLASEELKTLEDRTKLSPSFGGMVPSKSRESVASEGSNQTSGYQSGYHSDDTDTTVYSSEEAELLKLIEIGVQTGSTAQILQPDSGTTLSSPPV
Sequence of Proto-oncogene tyrosine-protein kinase Src (P12931 2-536 limits assumed): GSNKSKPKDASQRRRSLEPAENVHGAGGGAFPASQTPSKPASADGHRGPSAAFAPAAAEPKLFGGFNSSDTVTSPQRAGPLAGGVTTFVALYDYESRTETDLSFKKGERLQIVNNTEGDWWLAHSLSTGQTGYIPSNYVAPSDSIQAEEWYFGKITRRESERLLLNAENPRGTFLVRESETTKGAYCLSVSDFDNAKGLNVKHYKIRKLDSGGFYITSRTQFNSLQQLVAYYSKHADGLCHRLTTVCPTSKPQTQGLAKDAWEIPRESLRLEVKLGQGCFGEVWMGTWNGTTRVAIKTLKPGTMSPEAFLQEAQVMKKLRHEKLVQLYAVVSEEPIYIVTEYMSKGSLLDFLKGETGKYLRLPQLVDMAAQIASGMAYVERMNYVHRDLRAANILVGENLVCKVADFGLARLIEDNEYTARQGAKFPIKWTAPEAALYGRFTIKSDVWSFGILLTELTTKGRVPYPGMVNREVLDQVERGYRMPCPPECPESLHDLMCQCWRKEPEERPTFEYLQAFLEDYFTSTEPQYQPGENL
Sequence of Mitogen-activated protein kinase 1 (Homo sapiens) (P28482 whole entry): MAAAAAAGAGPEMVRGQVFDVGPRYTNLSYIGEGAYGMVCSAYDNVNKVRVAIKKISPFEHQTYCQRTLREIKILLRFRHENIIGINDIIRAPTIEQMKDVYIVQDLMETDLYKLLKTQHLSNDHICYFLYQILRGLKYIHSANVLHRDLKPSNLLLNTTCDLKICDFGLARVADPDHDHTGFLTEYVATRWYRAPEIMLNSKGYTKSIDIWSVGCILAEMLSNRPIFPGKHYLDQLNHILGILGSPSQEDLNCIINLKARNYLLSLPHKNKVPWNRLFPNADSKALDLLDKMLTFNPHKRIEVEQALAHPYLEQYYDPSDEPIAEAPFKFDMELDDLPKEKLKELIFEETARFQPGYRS
Sequence of Dual specificity mitogen-activated protein kinase kinase 7 (Homo sapiens) (O14733 whole entry): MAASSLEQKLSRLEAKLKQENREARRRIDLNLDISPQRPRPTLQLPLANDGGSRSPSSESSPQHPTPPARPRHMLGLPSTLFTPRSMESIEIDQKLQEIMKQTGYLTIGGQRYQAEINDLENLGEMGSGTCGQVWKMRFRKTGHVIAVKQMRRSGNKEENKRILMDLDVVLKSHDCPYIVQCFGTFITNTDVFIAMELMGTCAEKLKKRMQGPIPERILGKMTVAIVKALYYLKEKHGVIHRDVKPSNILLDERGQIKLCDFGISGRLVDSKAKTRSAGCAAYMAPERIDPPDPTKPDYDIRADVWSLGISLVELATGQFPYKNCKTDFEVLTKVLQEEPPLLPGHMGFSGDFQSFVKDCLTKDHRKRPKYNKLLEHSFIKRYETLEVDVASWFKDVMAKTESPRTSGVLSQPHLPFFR
Sequence of Protein kinase C beta type (Homo sapiens) (P05771 2-671 limits assumed): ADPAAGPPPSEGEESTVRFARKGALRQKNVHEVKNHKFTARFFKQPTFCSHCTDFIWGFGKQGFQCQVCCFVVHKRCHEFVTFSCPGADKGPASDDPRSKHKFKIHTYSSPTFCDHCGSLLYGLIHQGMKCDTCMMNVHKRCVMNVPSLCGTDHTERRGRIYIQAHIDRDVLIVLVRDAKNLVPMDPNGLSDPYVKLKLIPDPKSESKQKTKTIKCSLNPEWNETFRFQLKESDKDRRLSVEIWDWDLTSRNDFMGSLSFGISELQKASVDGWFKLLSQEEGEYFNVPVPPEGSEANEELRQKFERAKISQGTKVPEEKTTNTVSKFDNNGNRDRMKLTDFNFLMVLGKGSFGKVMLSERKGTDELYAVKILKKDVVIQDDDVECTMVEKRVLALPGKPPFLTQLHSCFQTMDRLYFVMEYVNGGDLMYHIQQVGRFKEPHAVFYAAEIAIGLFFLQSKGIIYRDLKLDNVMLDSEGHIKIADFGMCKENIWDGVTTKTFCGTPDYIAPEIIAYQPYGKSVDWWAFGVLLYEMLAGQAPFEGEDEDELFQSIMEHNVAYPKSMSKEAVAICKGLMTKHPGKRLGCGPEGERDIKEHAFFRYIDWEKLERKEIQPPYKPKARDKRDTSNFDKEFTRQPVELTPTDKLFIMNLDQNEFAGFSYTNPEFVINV
Sequence of MAP kinase-activated protein kinase 5 (Homo sapiens) (Q8IW41 whole entry): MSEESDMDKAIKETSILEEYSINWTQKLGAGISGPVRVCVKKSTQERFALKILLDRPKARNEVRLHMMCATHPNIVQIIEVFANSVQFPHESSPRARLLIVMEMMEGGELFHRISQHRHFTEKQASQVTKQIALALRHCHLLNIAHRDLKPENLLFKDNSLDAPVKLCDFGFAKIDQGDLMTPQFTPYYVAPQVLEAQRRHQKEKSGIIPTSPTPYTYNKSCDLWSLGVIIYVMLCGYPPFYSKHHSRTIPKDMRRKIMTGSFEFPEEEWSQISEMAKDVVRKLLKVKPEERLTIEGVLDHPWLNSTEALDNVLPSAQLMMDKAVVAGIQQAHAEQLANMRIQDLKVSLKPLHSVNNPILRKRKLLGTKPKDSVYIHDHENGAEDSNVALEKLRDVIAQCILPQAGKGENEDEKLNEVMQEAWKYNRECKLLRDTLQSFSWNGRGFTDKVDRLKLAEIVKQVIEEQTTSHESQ

**Q.** Which results are given for `Cc1ccc(-n2ccc(C)c(-c3ccc4nc(N)ncc4c3)c2=O)cc1F`?
**A.** IC50 [1]: 40 µM; clearance [2]: 1.95 L/h/kg; Vd [3]: 2.39 L/kg; AUC(0-t) [4]: 1.31 µg·h/mL; Cmax [5]: 0.28 µg/mL; half-life [6]: 2.9 h; bioavailability [7]: 100%; IC50 [8]: 0.012 µM; IC50 [9]: > 5 µM; IC50 [10]: 25 µM; IC50 [11]: 25 µM

**Q.** What does the source list for `Cc1ccn(-c2cccc(C(F)(F)F)c2)c(=O)c1-c1ccc2nc(N)ncc2c1`?
**A.** inhibition [12]: > 50%; IC50 [1]: 6.1 µM; clearance [2]: 2.46 L/h/kg; Vd [3]: 4.12 L/kg; AUC(0-t) [13]: 1.04 µg·h/mL; Cmax [14]: 0.253 µg/mL; half-life [15]: 1.83 h; bioavailability [16]: 25%; EC50 (Mus musculus): 0.0126 µM; ED50 (Mus musculus; po): 4.7 mg/kg; Activity (Plasma): 87.85%; IC50 [17]: 1.4 µM; inhibition [18]: > 50%; inhibition [19]: > 50%; inhibition [20]: > 50%; inhibition [21]: > 50%; inhibition [22]: > 50%; inhibition [23]: > 50%; inhibition [24]: > 50%; inhibition [25]: > 50%; inhibition [26]: > 50%; inhibition [27]: > 50%; inhibition [28]: > 50%; inhibition [29]: > 50%; inhibition [30]: > 50%; inhibition [31]: > 50%; inhibition [32]: > 50%; inhibition [33]: > 50%; inhibition [34]: > 50%; inhibition [35]: > 50%; inhibition [36]: > 50%; inhibition [37]: > 50%; inhibition [38]: 50%; inhibition [39]: 50%; inhibition [40]: > 50%; inhibition [41]: > 50%; inhibition [42]: > 50%; inhibition [43]: > 50%; inhibition [44]: > 50%; inhibition [45]: > 50%; inhibition [46]: > 50%; inhibition [47]: > 50%; inhibition [48]: > 50%; inhibition [49]: > 50%; inhibition [50]: > 50%; inhibition [51]: > 50%; inhibition [52]: > 50%; IC50 [9]: > 5 µM; IC50 [10]: 1.7 µM; IC50 [11]: 0.86 µM; IC50 [53]: 0.009 µM
